# Columns and labels:
# [1] = Intrinsic dissolution studies; assay type: physicochemical; details: crystalline solid
# Description: Intrinsic dissolution measurements were performed using a fiber optic probe (Delphian® type 11A fiber optic workstation, baseline correction mode with sample wavelength maximum of 279 nm and baseline wavelength of 350 nm) at 37° C. and 100 rpm in a USP apparatus II dissolution vessel (Vankel VK7010) containing 500 mL of pure water. Disks 0.8 cm diameter were compressed using 70 mg of solid in stainless steel dies (Vankel Woods apparatus) at 1000 lbs for 60 seconds with a Carver Press. Dissolution studies for cocrystal 2 lasted 90 minutes, after which time the disks were recovered, carefully ground and checked by XRPD for the presence of cocrystal. Due to the low solubility of Compound 1, dissolution studies were run over 24 hours in order to get a measurable rate.
# [2] = Pharmacokinetic evaluation in beagle dogs after oral dosing of neat solid in gelatin capsule; assay type: in vivo; details: oral dosing of the crystalline solid
# Description: A study was conducted to compare the pharmacokinetic profiles of Compound 1 and Cocrystal 2. Compound 1 and Cocrystal 2 were administered as neat solids to six male beagle dogs in a crossover study with a two-week washout period between treatments. Each dog was dosed with either Compound 1 or Cocrystal 2 in a gelatin capsule after an overnight fast. All research involving animal subjects adhered to the “Principles of Laboratory Animal Care” (NIH publication #85-23). Dose levels of 5 mg/kg and 50 mg/kg were each evaluated. Each dog received one size #2 capsule for the 5 mg/kg dose. Dosing at 50 mg/kg required use of two size #00 capsules for each dog. Blood samples were collected at intervals for 36 hours post-dose. Non-compartmental pharmacokinetic metrics were determined using WinNonlin v. 1.5 (Scientific Consulting, Inc., Mountain View, Calif.). The area under the plasma concentration-time curve (AUC) was estimated by application of the linear trapezoidal rule. Statistical analyses were conducted using Microsoft Excel 2000; statistical significance was considered when p<0.05.
# [3] = Solubility in aqueous systems; assay type: physicochemical
# Text: Five cocrystals of 2-4-(4-chloro-2-fluorophenoxy)phenyl]pyrimidine-4-carboxamide (Compound 1) were identified by using techniques of the disclosure. […] Although the permeability of Compound 1 could not be measured in Caco-2 cells because of its inherently low solubility, Compound 1 is suspected to be a Class II compound (low solubility and high permeability) as described in the biopharmaceutical drug classification scheme (BCS) (Amidon, Gordon L., Lennernaes, Hans, Shah, Vinod P. and Crison, John R. (1995) “A theoretical basis for a biopharmaceutic drug classification: the correlation of in vitro drug product dissolution and in vivo bioavailability” Pharmaceutical Research […], 12(3), 4 13-20). The calculated octanol/water partition coefficient (clogP) for Compound 1 is 2.9, supporting this suspicion (Yazdanian, Mehran, Glynn, Susan L., Wright, James L., and Hawi, Amale. (1998) “Correlating partitioning and Caco-2 cell permeability of structurally diverse small molecular weight compounds” Pharmaceutical Research 1998 15(9), 1490-1494). […] Cocrystallization techniques were used as a tool to improve the pharmaceutical properties of Compound 1.
smiles,measurement,setting,value
NC(=O)c1ccnc(-c2ccc(Oc3ccc(Cl)cc3F)cc2)n1 [Compound 1],in-vitro dissolution,[1],low
same,in-vivo plasma concentrations,[2],low
same,solubility in aqueous systems,[3],< 0.1 µg/mL

# From patent US20070088508A1, “Cocrystallization methods” (priority 2005, published 2007)
